Experimental data as given in ChEMBL document CHEMBL1212765, “An A643T mutation in the transcription factor Upc2p causes constitutive ERG11 upregulation and increased fluconazole resistance in Candida albicans” (2010).
≈ marks a conversion by molar mass, not a printed value. Calls of active or inactive are those of the source. No cut-off for these calls is given here.

Columns and labels:
Candida albicans [1] = test: Antimicrobial activity against fluconazole susceptible Candida albicans isolate 945 expressing low levels of ERG11 and UPC2 mRNA by microdilution method; assay type: functional
Candida albicans [2] = test: Antimicrobial activity against fluconazole susceptible Candida albicans isolate 5052 expressing low levels of ERG11 and UPC2 mRNA by microdilution method; assay type: functional
Candida albicans [3] = test: Antimicrobial activity against fluconazole resistant Candida albicans isolate 1619 expressing high levels of ERG11 and UPC2 mRNA by microdilution method; assay type: functional
Candida albicans [4] = test: Antimicrobial activity against Candida albicans isolate SC5314 expressing UPC2 G648D/UPC2 A643T double mutant alleles by microdilution method relative wild type; assay type: functional, organism-based
Candida albicans [5] = test: Antimicrobial activity against Candida albicans isolate SC5314 expressing UPC2/UPC2 G648D mutant allele by microdilution method relative wild type; assay type: functional
Candida albicans [6] = test: Antimicrobial activity against Candida albicans isolate SC5314 expressing UPC2/UPC2 A643T mutant allele by microdilution method relative wild type; assay type: functional, organism-based
Candida albicans [7] = test: Antimicrobial activity against fluconazole susceptible Candida albicans isolate 580 expressing low levels of ERG11 and UPC2 mRNA by microdilution method; assay type: functional
Candida albicans [8] = test: Antimicrobial activity against fluconazole resistant Candida albicans isolate 3795 expressing high levels of ERG11 and UPC2 mRNA by microdilution method; assay type: functional
Candida albicans [9] = test: Antimicrobial activity against Candida albicans isolate SC5314 expressing UPC2 G648D/UPC2 G648D double mutant alleles by microdilution method relative wild type; assay type: functional
Candida albicans [10] = test: Antimicrobial activity against fluconazole susceptible Candida albicans 5054 expressing low levels of ERG11 and UPC2 mRNA by microdilution method; assay type: functional
Candida albicans [11] = test: Antimicrobial activity against fluconazole resistant Candida albicans isolate 2440 expressing high levels of ERG11 and UPC2 mRNA by microdilution method; assay type: functional
Candida albicans [12] = test: Antimicrobial activity against fluconazole susceptible Candida albicans isolate 1002 expressing low levels of ERG11 and UPC2 mRNA by microdilution method; assay type: functional

OC(Cn1cncn1)(Cn1cncn1)c1ccc(F)cc1F [FLUCONAZOLE]
MIC (Candida albicans [1]): 4 µg/mL (≈ 13.1 µM) | MIC (Candida albicans [2]): 32 µg/mL (≈ 104 µM) | MIC (Candida albicans [3]): 32 µg/mL (≈ 104 µM) | MIC (Candida albicans [4]): inactive | Ratio (Candida albicans [5]): 4 | MIC (Candida albicans [6]): inactive | MIC (Candida albicans [7]): 1 µg/mL (≈ 3.27 µM) | MIC (Candida albicans [8]): > 64 µg/mL | Ratio (Candida albicans [9]): 8 | MIC (Candida albicans [10]): 4 µg/mL (≈ 13.1 µM) | MIC (Candida albicans [11]): 32 µg/mL (≈ 104 µM) | MIC (Candida albicans [12]): 0.25 µg/mL (≈ 0.816 µM)
